The results in this text go back to US8188053B2, “Anti-inflammatory peptides” (The University of Manchester, priority 2005, dated 2012).

Entries after “also recorded” stand apart in the source; their conditions may differ.

Holding throughout (type): in vivo
Experiment [1] relates to allergen (oxazolone) induced Langerhans Cell (LC) migration. The experiment can be described thus: allergen (oxazolone) induced Langerhans Cell (LC) migration after prior topical application of peptide. Conditions: for inhibition of allergen-induced LC migration: prior topical exposure to peptide, subsequent oxazolone at the same site; for biological activity (epidermal LC migration), equimolar comparison: equimolar doses (1.38 μM): 0.5 μg hTRX, 0.04 μg 9-mer, 0.025 μg KMIKP, 0.016 μg CGPC. On the procedure:
Various tissue studies are conducted to examine the effect of each of the aforementioned polypeptides on allergen (oxazolone) induced Langerhans Cell (LC) migration. Applications are in μg unless otherwise stated.
The purpose of this experiment is to determine whether topical application of peptide 1 is able to influence the integrity of LC migration induced by subsequent exposure at the same site to oxazolone, a potent contact allergen known to cause the mobilization of LC. The results of a representative experiment are illustrated in FIG. 1.
The purpose of this experiment is to determine whether topical application of peptide 3 is able to influence the integrity of LC migration induced by subsequent exposure at the same site to oxazolone. The results of three independent experiments are illustrated in FIG. 2. […] The conclusion drawn is that topically applied peptide 3 is able to inhibit one or more biological processes required for the effective mobilization and migration of LC in response to a stimulus, in this instance the contact allergen oxazolone.

The test system of experiment [2] is Langerhans Cell migration induced by TNF-α. Description: Langerhans Cell migration induced by intradermal injection of homologous TNF-α after prior topical peptide. The conditions noted are these: prior topical exposure; intradermal (id) injection of homologous TNF-α. From the text:
(§1) The purpose of this experiment is to investigate whether the 9-mer peptide (CGPCKMIKP; SEQ ID NO: 9) could affect Langerhans Cell migration induced by either IL-1β or TNF-α. The results of a representative experiment are illustrated in FIG. 9. […] The interpretation is that topical administration of the 9-mer peptide is associated with a perturbation of IL-1β function.

Experiment [3] has as its system Langerhans Cell migration induced by IL-1β. The experiment can be described thus: Langerhans Cell migration provoked by intradermal administration of homologous IL-1β after prior topical peptide. The conditions noted are these: prior topical exposure; id administration of homologous IL-1β.
Description: as §1

With ANKEKLEATINELV [peptide 7], the “inhibition of allergen-induced LC migration” value in experiment [1] is “does not inhibit”.

As to AGPAKMIKP [cysteine free 9-mer peptide], the “inhibition of allergen-induced LC migration” value in experiment [1] is given as “active”.

As to KMIKP, in experiment [1], the “biological activity (epidermal LC migration), equimolar comparison” value (from here on “biological activity”) is “appear to exhibit biological activity”.

For the molecule “IPCMPKCKG [scrambled 9-mer, reference compound]”, the “inhibition of allergen-induced LC migration” value in experiment [1] is reported as “not biologically active”.

On to VKQIESKTAFQEALDAAGDK [peptide 1], for which the “inhibition of allergen-induced LC migration” value in experiment [1] was “does not inhibit”.

In the case of CGPCKMIKP [9-mer peptide], the “inhibition of Langerhans Cell migration induced by TNF-α” value in experiment [2] is given as “almost complete inhibition”. In experiment [3], the “influence on Langerhans Cell migration provoked by IL-1β” value is reported as “without influence”. In experiment [1], the “biological activity” value is recorded as “appear to exhibit biological activity” and the “inhibition of allergen-induced LC migration” value is “activity of the 9-mer peptide at all doses tested; also recorded: active”. Further, the “inhibition of allergen-induced LC migration” value in experiment [1] (listed as 9-mer) is on record as “active”.

In the case of SATYCGPCKMIKP [peptide RV-1], the “inhibition of allergen-induced LC migration” value in experiment [1] was “does inhibit; also recorded: active”.

Turning to KMIMP, the “inhibition of allergen-induced LC migration” value in experiment [1] is reported as “active”.

In the case of CGPCKMIKPFFHSLSEKYSN [peptide 3], the “inhibition of allergen-induced LC migration at the highest concentration tested” value in experiment [1] (highest concentration (0.5 μg) tested, three independent experiments, oxazolone) is “complete (or near complete) inhibition”. The “inhibition of allergen-induced LC migration” value in experiment [1] is listed as “some indication for a dose-related inhibition; also recorded: substantial inhibition; also recorded: active”. Also, the “variation in activity between peptide synthesis batches” value in experiment [1] (two independent preparations of peptide 3, oxazolone-induced LC migration) was “only a small variation in activity”.

With CGPC [reference compound], the “biological activity” value in experiment [1] is “all but the CGPC (SEQ ID NO: 22) peptide appear to exhibit biological activity”.

B1: hTRX: Recombinant human thioredoxin (SEQ ID NO. 14), from which the peptides of the invention are derived (protein, listed as Homo sapiens)
chain: MVKQIESKTAFQEALDAAGDKLVVVDFSATWCGPCKMIKPFFHSLSEKYSNVIFLEVDVDDCQDVASECEVKCMPTFQFFKKGQKVGEFSGANKEKLEATINELV
With B1, in experiment [1], the “biological activity” value is recorded as “appear to exhibit biological activity”.
